{"source": "patent US10131650B2", "about": "“Alpha-helix analog having triazine-piperazine backbone and method for preparing same” (POSCO, priority 2014, dated 2018)", "key": {"[1]": {"target": "T1, interaction between MCL-1 and BH3 (Homo sapiens, UniProt Q07820)", "T1 construct": "GST (cleaved yes); made in house; host or cells: E. coli BL21(DE3)", "T1 sequence (Q07820 172-320)": "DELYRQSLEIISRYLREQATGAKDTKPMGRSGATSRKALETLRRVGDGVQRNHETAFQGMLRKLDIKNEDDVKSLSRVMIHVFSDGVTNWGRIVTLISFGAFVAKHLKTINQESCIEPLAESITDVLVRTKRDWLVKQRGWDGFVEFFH", "experiment": "Competitive fluorescence polarization assay with FITC-MCL-1-BH3 peptide", "format": "binding", "details": "for activity in competitive fluorescence polarization assay (MCL-1/BH3): result in words; for Ki: competitive fluorescence polarization, FITC-MCL-1-BH3 50 nM, 0.8 μM MCL-1ΔNΔC, read-out: Ki, dissociation of the interaction between MCL-1 and BH-3", "description": "MCL-1 protein was incubated with sulfo-NHS-Biotin (Thermo Scientific) in 0.1 M NaHCO3 buffer (pH 8.3) for 45 minutes at room temperature to biotinylate the MCL-1 protein (because MCL-1ΔNΔC protein used in the test have several Lysine residues being exposed in a surface and being apart from the active site of BH3 binding, the protein is biotinylated with modification). The reaction was quenched with addition of 1.5 M hydroxylamine. The labeled protein was separated with the dialysis with 1×PBS buffer containing 0.05% Tween20 (pH 7.4). The degree of labeling was determined according to the manufacturer's instructions (degree of biotinylation: 1.05 biotin per protein).\nFluorescence polarization values were measured with a SpectraMax M5 Multi-Mode Microplate Reader (Molecular Devices). […] KD was calculated with GraphPad Prism 4 software. […] N-terminal labeled FITC-MCL-1-BH3 peptide (FITC-Abu-[…]-NH2) was synthesized and purified with HPLC. The compounds was incubated at various concentrations with FITC-MCL-1-BH3 (50 nM) and 0.8 μM MCL-1ΔNΔC in binding buffer for 30 minutes and then was added by FITC-MCL-1-BH3 (50 nM). After incubated with addition of various concentrations of compounds, the fluorescence polarization was measured. Ki was calculated by using the conventional method (Nikolovska-Coleska, Z. et al, Anal. Biochem. 2004, 332, 261)."}, "[2]": {"target": "T2, MCL-1/BAK interaction in Jurkat T cells (Homo sapiens, UniProt Q07820)", "T2 construct": "endogenous in cells; host or cells: Jurkat T cells", "experiment": "Co-immunoprecipitation and Western blotting", "format": "cell-based", "details": "2.5 hours, MCL-1 immunoprecipitation, Western blot", "description": "In Opti-MEM medium, Jurkat T cells (1×10^7 cells) were treated with DMSO or compound. Cells were harvested after culturing for 2.5 hours, washed once with PBS, and lysed on ice using lysis buffer (50 mM Tris-HCl, pH 7.4, 150 mM NaCl, 1 mM EDTA, 1 mM DTT, 0.5% NP-40 and complete protease inhibitor tablet). Cell lysates were incubated with anti-MCL-1 antibody (S-19, Santa Cruz) overnight at 4° C. and incubated with protein A/G agarose for 1 hour. The beads were precipitated, washed at three times with lysis buffer, and the denatured protein was subjected to western blotting using anti-BAK (Cell Signaling) and anti-MCL-1 antibody. Western blot analysis was performed on an Immobilon-FL (Millipore) PVDF membrane. Goat anti-Rabbit IRDye 680 antibody (Licor) was used as a secondary antibody and the signal was analyzed with Odyssey 3.0 software."}, "[3]": {"experiment": "Water solubility in phosphate buffered saline", "format": "physicochemical", "details": "aqueous buffer; phosphate buffered saline at pH 7.4", "from_the_text": "As a result of analyzing the three peptoids, the selected compounds had the following structures of 9a (Chemical formula 4), 9b (Chemical formula 5) and 9c (Chemical formula 6), respectively."}, "[4]": {"target": "α-synuclein disease-associated mutant A53T (Homo sapiens, UniProt P37840, A53T)", "experiment": "Thioflavin-T aggregation assay", "format": "biochemical", "details": "30 hours, 37° C."}, "A549 cells": {"system": "A549 cells", "experiment": "Confocal microscopy, cell permeation", "format": "cell-based", "details": "fluorescence-labeled compound", "description": "A549 cells (5×10^3 cells) were plated MEM medium containing 10% FBS of 96-well plates. Cells were maintained for 24 hours, washed with PBS, and then […] of fluorescence-labeled compound or 5 (6)-carboxyfluorescein was treated in Opti-MEM medium and incubated for 2.5 hours. The cells were washed with 1×PBS (2 times) and fluorescence images were analyzed."}, "Jurkat leukemia T cells": {"system": "Jurkat leukemia T cells", "experiment": "Cell viability assay", "format": "cell-based", "details": "24 hours", "description": "(§1) Jurkat T cells were cultured in RPMI 1640 medium containing 10% FBS, and 4×10^4 Jurkat T cells were seeded in 100 μL Opti-MEM medium (Invitrogen) of 96-well plate. WS-1 cells were cultured in MEM medium containing 10% FBS and 2×10^4 WS-1 cells were seeded in 100 μL MEM medium containing 10% FBS of 96-well plate for 24 hours, washed with PBS, and cultured in 100 μL Opti-MEM. The cells were maintained at serum-starved state for 6 hours and treated with the compound. After culturing for 24 hours, the cell viability was assayed using the CellTiter 96 AQueous Non-Radioactive Cell Proliferation Assay kit (Promega) according to the manufacturer's instructions."}, "[5]": {"system": "WS-1 human fibroblast cells", "experiment": "Cell viability assay", "format": "cell-based", "details": "24 hours", "description": "as §1"}, "[6]": {"system": "U266 cells (multiple myeloma)", "experiment": "Cell viability assay", "format": "cell-based", "details": "24 hours"}, "[7]": {"system": "HEK293 embryonic kidney cells", "experiment": "Cell viability assay", "format": "cell-based", "details": "24 hours"}, "U266 cells": {"system": "U266 cells", "experiment": "Caspase 3/7 assay", "format": "cell-based", "details": "16 hours"}, "α-synuclein": {"target": "T3, α-synuclein (Homo sapiens, UniProt P37840)", "T3 construct": "GST (cleaved yes); made in house; host or cells: E. coli Rosetta 2 (DE3)", "experiment": "Fluorescence polarization assay, binding to wild type α-synuclein", "details": "result in words"}, "Bcl-xL1-212": {"target": "Bcl-xL1-212 (Homo sapiens, UniProt Q07817)", "sequence (Q07817 1-212)": "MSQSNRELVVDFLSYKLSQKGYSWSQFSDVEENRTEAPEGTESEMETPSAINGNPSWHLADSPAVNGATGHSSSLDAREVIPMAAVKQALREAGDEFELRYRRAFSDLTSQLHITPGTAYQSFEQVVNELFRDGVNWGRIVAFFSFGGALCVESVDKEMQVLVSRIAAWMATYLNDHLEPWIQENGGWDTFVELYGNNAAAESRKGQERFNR", "experiment": "Competitive fluorescence polarization assay, selectivity", "format": "binding", "details": "competitive FP", "from_the_text": "Because BH3-binding pocket of MCL-1 is similar to BH3-binding pocket of Bcl-2 family proteins such as Bcl-xL, the present inventors tested the selectivity of PPT-31."}, "Mcl-1172-320": {"target": "Mcl-1172-320 (Homo sapiens, UniProt Q07820)", "sequence (Q07820 172-320)": "as the sequence (Q07820 172-320) above", "experiment": "Competitive fluorescence polarization assay with labeled Bak-BH3 peptide"}}, "data": [{"smiles": "CCNc1nc(N)nc(N2CCN(c3nc(NCC)nc(NCC)n3)CC2)n1", "note": "[9-nc, 6-(4-(4-amino-6-(ethylamino)-1,3,5-triazin-2-yl)piperazin-1-yl)-N^2,N^4-diethyl-1,3,5-triazine-2,4-diamine, reference compound]", "values": [{"measurement": "activity in competitive fluorescence polarization assay (MCL-1/BH3)", "setting": "[1]", "result": "did not bind"}, {"measurement": "inhibition of MCL-1/BAK protein interaction in cells", "setting": "[2]", "result": "did not inhibit"}]}, {"smiles": "CCNc1nc(NCc2ccccc2)nc(N2CCN(c3nc(N)nc(NCc4ccc5c(c4)OCO5)n3)CC2Cc2ccccc2)n1", "note": "(stereo not drawn) [Chemical formula 4, 6-(4-(4-amino-6-((benzo[d][1,3]dioxol-5-ylmethyl)amino)-1,3,5-triazin-2-yl)-2-benzylpiperazin-1-yl)-N^2-benzyl-N^4-ethyl-1,3,5-triazine-2,4-diamine]", "values": [{"measurement": "solubility", "setting": "[3]", "result": "~100", "unit": "µg/mL"}, {"measurement": "activity in competitive fluorescence polarization assay (MCL-1/BH3)", "setting": "[1]", "result": "weak activity"}, {"measurement": "aggregation of α-synuclein (onset / inhibition)", "setting": "[4]", "result": "had not inhibition of aggregation"}]}, {"smiles": "CCCN(CC1CC1)c1nc(N)nc(N2CCN(c3nc(NCC)nc(NCc4ccc5c(c4)OCO5)n3)C(Cc3ccccc3)C2)n1", "note": "(stereo not drawn) [Chemical formula 5, 6-(4-(4-amino-6-((cyclopropylmethyl)(propyl)amino)-1,3,5-triazin-2-yl)-2-benzylpiperazin-1-yl)-N^2-(benzo[d][1,3]dioxol-5-ylmethyl)-N^4-ethyl-1,3,5-triazine-2,4-diamine]", "values": [{"measurement": "solubility", "setting": "[3]", "result": "~100", "unit": "µg/mL"}, {"measurement": "Ki", "setting": "[1]", "result": 17.2, "unit": "µM"}, {"measurement": "inhibition of MCL-1/BAK protein interaction in cells", "setting": "[2]", "result": "effectively inhibit"}]}, {"smiles": "CCNc1nc(NCCc2ccc(O)cc2)nc(N2CCN(c3nc(N)nc(Nc4ccc(Oc5ccccc5)cc4)n3)CC2Cc2ccccc2)n1", "note": "(stereo not drawn) [Chemical formula 6, 4-(2-((4-(4-(4-amino-6-((4-phenoxyphenyl)amino)-1,3,5-triazin-2-yl)-2-benzylpiperazin-1-yl)-6-(ethylamino)-1,3,5-triazin-2-yl)amino)ethyl)phenol]", "values": [{"measurement": "solubility", "setting": "[3]", "result": "~100", "unit": "µg/mL"}, {"measurement": "Ki", "setting": "[1]", "result": 9.3, "unit": "µM"}, {"measurement": "inhibition of MCL-1/BAK protein interaction in cells", "setting": "[2]", "result": "inhibited"}, {"measurement": "cell permeability", "setting": "A549 cells", "result": "permeable to cells"}, {"measurement": "survival of cancer cells", "setting": "Jurkat leukemia T cells", "result": "effectively inhibited the survival"}, {"measurement": "survival of normal cells", "setting": "[5]", "result": "did not affect survival"}, {"measurement": "survival of cancer cells", "setting": "[6]", "result": "effectively inhibited the survival"}, {"measurement": "survival of normal cells", "setting": "[7]", "result": "did not affect survival"}, {"measurement": "caspase 3/7 activity", "setting": "U266 cells", "result": "increased the caspase activity in a concentration-dependent manner"}, {"measurement": "binding to α-synuclein", "setting": "α-synuclein", "result": "showed affinity"}]}, {"smiles": "CCNc1nc(NCc2ccccc2)nc(N2CCN(c3ccc(C(N)=O)cc3NCc3ccccc3)CC2Cc2ccccc2)n1", "note": "(stereo not drawn) [PPT-31, 2-{4-(2-aminobenzyl-4-carbamoylphenyl)-2-benzyl-piperazine}-4-aminoethyl-6-aminobenzyl-[1,3,5]triazine]", "values": [{"measurement": "inhibition of the interaction between Bcl-xL1-212 and BH3", "setting": "Bcl-xL1-212", "result": "did not inhibit"}, {"measurement": "Ki", "setting": "Mcl-1172-320", "result": 7.3, "unit": "µM"}, {"measurement": "inhibitory effect on the Mcl-1/BH3 interaction", "setting": "Mcl-1172-320; at 10 μM and 50 μM, among 36 library compounds", "result": "highest inhibitory effect"}]}]}
